In ChEMBL document CHEMBL1152326, “Anti-inflammatory sesquiterpenoids from a sponge-derived Fungus Acremonium sp” (J Nat Prod, 2009):
Activity calls are given as the source filed them. The rule behind the calls is not given here.

Tests used:
RAW264.7 [1] = assay: Antiinflammatory activity in mouse RAW264.7 cells assessed as inhibition of LPS-induced nitric oxide production at 100 uM after 24 hrs by Griess reagent method relative to control; assay type: functional, cell-based
RAW264.7 [2] = assay: Antiinflammatory activity in mouse RAW264.7 cells assessed as inhibition of LPS-induced TNFalpha production at 100 uM after 24 hrs by ELISA relative to control; assay type: functional, cell-based

SMILES	Activity (RAW264.7 [1])	Activity (RAW264.7 [2])
C/C(=C\Cc1c(O)cc(C)c(C=O)c1O)CC[C@@]1(C)[C@H](C)CCC(=O)[C@@H]1C	Active	
C/C(=C\Cc1c(O)c(Cl)c(C)c(C=O)c1O)CC/C=C(\C)[C@@H]1CC(=O)C(C)(C)O1	Active	Active
C/C(=C\Cc1c(O)c(Cl)c(C)c(C=O)c1O)CC[C@@]1(C)[C@H](C)CCC(=O)[C@@H]1C	Active	
CC(/C=C/[C@@]1(C)[C@H](C)CCC(=O)[C@@H]1C)=C\Cc1c(O)c(Cl)c(C)c(C=O)c1O	Active	Active
